# Measurements: ChEMBL document CHEMBL4673395, “Discovery of PIPE-359, a Brain-Penetrant, Selective M Receptor Antagonist with Robust Efficacy in Murine MOG-EAE” (ACS Med Chem Lett, 2021)
# The source made the active and inactive calls. No cut-off for these calls is given here.
# Legend:
# [1] = Metabolic stability in rat liver microsomes assessed as parent compound remaining at 1 uM measured at 15 mins by LC-MS/MS analysis; assay type: ADME, Microsome; details: read-out: Stabilty
# [2] = target: T1, Muscarinic acetylcholine receptor M1 (Homo sapiens, UniProt P11229); test: Antagonist activity at human recombinant muscarinic receptor M1 expressed in CHO-K1 cells assessed as EC80 acetylcholine-induced calcium flux incubated for 30 mins; assay type: functional, cell-based
# T1 sequence (P11229 whole entry): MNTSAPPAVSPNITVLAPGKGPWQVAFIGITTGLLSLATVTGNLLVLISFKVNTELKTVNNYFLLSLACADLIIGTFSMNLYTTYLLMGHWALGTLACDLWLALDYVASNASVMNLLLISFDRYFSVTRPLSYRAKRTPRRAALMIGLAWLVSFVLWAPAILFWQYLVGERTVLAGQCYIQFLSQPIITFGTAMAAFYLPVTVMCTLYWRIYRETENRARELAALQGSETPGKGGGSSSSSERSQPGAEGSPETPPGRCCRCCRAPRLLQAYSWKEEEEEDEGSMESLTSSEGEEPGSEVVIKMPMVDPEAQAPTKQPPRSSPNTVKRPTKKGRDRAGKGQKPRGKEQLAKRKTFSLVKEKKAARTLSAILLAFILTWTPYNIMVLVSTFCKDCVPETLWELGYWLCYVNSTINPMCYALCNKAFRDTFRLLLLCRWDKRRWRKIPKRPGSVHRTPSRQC
# [3] = test system: Mus musculus; test: In vivo receptor occupancy at muscarinic M1 receptor in myelin oligodendrocyte glycoprotein (MOG)-induced experimental autoimmune encephalitis C57BL/6 mouse model assessed as decrease in occupancy at 30 mg/kg, po measured up to 8 hrs; assay type: functional, organism-based; details: time hrs <=8
# [4] = Drug uptake in rat brain at 10 mg/kg, po measured after 2 hrs by LC-MS/MS; assay type: ADME, organism-based; details: read-out: Drug uptake
# [5] = Fraction unbound in rat brain at 30 mg/kg, po measured after 24 hrs; assay type: ADME, organism-based; details: in vivo
# [6] = Fraction unbound in rat plasma at 30 mg/kg, po measured after 24 hrs; assay type: ADME, organism-based; details: in vivo
# [7] = Fraction unbound in rat plasma at 30 mg/kg, po measured after 8 hrs; assay type: ADME, organism-based; details: in vivo
# [8] = Unbound fraction in rat brain at 10 mg/kg, po measured after 2 hrs by LC-MS/MS; assay type: ADME, organism-based; details: in vivo
# [9] = In vivo receptor occupancy at muscarinic M1 receptor in myelin oligodendrocyte glycoprotein (MOG)-induced experimental autoimmune encephalitis C57BL/6 mouse model assessed as decrease in occupancy at 30 mg/kg, po measured after 24 hrs; assay type: functional; parameters: Activity: scale not given: the % may be the effect or the level left
# [10] = Oral bioavailability in rat at 10 mg/kg; assay type: ADME, organism-based; details: in vivo
# [11] = AUC in rat at 10 mg/kg, po; assay type: ADME, organism-based; parameters: dose 10 mg/kg; details: in vivo
# [12] = AUC in rat at 2 mg/kg, iv; assay type: ADME, organism-based; parameters: dose 2 mg/kg; details: in vivo
# [13] = Half life in rat at 2 mg/kg, iv; assay type: ADME, organism-based; details: in vivo
# [14] = Unbound clearance in rat at 10 mg/kg, po; assay type: ADME, organism-based; details: in vivo
# [15] = Clearance in rat at 2 mg/kg, iv; assay type: ADME, organism-based; details: in vivo
# [16] = target: Cytochrome P450 3A4 (Homo sapiens, UniProt P08684); test: Inhibition of human CYP3A4 in pooled human liver microsomes using midazolam as substrate incubated for 5 mins by LC-MS/MS; assay type: ADME
# [17] = target: Cytochrome P450 2D6 (Homo sapiens, UniProt P10635); test: Inhibition of human CYP2D6 in pooled human liver microsomes using dextromethorphan as substrate incubated for 20 mins by LC-MS/MS; assay type: ADME
# [18] = target: Cytochrome P450 2C9 (Homo sapiens, UniProt P11712); test: Inhibition of human CYP2C9 in pooled human liver microsomes using diclofenac as substrate incubated for 5 mins by LC-MS/MS; assay type: ADME
# [19] = Plasma protein binding in mouse assessed as unbound fraction; assay type: ADME, cell-free
# [20] = Plasma protein binding in rat assessed as unbound fraction; assay type: ADME, cell-free
# [21] = Metabolic stability in mouse liver microsomes assessed as intrinsic clearance at 1 uM measured up to 60 mins by LC-MS/MS analysis; assay type: ADME, Microsome; details: read-out: CLH
# [22] = Metabolic stability in rat liver microsomes assessed as intrinsic clearance at 1 uM measured up to 60 mins by LC-MS/MS analysis; assay type: ADME, Microsome; details: read-out: CLH
# [23] = target: T2, Muscarinic acetylcholine receptor M3 (Homo sapiens, UniProt P20309); test: Displacement of [3H]NMS from human recombinant muscarinic receptor M3 expressed in CHO-K1 cell membranes assessed as inhibition constant incubated for 1 hr by Radioligand binding assay
# [24] = target: Muscarinic acetylcholine receptor M2 (Homo sapiens, UniProt P08172); test: Displacement of [3H]NMS from human recombinant muscarinic receptor M2 expressed in CHO-K1 cell membranes assessed as inhibition constant incubated for 1 hr by Radioligand binding assay
# [25] = target: T1, Muscarinic acetylcholine receptor M1; test: Displacement of [3H]NMS from human recombinant muscarinic receptor M1 expressed in CHO-K1 cell membranes assessed as inhibition constant incubated for 1 hr by Radioligand binding assay
# [26] = target: T2, Muscarinic acetylcholine receptor M3; test: Antagonist activity at human recombinant muscarinic receptor M3 expressed in CHO-K1 cells assessed as EC80 acetylcholine-induced calcium flux incubated for 30 mins; assay type: functional, cell-based
# [27] = target: T3, Muscarinic acetylcholine receptor M2 (Homo sapiens, UniProt P08172); test: Antagonist activity at human recombinant muscarinic receptor M2 expressed in CHO-K1 cells assessed as EC80 acetylcholine-induced calcium flux incubated for 30 mins; assay type: functional, cell-based
# T3 sequence (P08172 whole entry): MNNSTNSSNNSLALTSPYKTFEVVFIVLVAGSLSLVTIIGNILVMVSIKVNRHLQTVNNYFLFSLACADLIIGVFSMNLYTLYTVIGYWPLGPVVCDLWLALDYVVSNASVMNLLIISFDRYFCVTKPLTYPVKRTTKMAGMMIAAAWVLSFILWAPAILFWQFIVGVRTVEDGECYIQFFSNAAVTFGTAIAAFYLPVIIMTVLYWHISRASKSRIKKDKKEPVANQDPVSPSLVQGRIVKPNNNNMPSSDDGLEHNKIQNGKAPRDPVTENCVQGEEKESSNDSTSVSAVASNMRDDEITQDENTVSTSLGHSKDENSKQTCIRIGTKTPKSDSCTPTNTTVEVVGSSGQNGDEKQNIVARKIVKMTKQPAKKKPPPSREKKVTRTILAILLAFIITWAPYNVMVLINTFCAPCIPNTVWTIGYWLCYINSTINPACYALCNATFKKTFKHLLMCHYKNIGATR
# [28] = Apparant permeability across apical to basolateral side in dog MDCK-MDR1 cells; assay type: ADME, cell-based, Canis lupus familiaris
# [29] = Metabolic stability in human liver microsomes assessed as intrinsic clearance at 1 uM measured up to 60 mins by LC-MS/MS analysis; assay type: ADME, Microsome; details: read-out: CLH
# T2 sequence (P20309 whole entry): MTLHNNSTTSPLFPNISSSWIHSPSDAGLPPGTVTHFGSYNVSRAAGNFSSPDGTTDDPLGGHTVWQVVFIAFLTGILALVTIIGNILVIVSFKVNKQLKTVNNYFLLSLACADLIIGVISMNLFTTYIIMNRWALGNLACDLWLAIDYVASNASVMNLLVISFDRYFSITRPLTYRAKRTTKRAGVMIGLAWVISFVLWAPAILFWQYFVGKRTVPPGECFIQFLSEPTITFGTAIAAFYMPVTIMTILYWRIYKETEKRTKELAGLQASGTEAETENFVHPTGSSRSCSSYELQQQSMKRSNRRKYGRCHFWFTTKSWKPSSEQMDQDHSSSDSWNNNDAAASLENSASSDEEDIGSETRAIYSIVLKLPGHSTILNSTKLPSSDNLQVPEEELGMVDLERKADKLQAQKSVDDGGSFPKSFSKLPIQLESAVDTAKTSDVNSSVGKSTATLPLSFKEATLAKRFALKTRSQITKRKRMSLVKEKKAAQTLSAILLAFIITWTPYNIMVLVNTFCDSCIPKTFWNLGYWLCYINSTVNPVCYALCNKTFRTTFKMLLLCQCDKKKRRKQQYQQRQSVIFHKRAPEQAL
# Chain of Cytochrome P450 2D6 (P10635 whole entry): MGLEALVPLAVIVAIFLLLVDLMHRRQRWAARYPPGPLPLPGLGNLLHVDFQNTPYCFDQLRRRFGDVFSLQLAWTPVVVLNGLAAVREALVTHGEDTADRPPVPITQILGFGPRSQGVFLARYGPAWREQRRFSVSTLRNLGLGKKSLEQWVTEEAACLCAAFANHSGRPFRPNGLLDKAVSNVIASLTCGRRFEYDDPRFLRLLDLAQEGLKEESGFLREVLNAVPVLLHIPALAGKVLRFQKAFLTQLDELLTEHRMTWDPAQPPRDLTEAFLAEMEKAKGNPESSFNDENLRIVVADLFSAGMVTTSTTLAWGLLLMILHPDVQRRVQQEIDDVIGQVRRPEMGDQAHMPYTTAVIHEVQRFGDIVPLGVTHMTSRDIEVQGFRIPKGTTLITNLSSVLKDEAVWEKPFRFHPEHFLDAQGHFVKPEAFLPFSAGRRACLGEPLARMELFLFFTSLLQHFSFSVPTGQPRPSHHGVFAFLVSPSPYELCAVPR
# Chain of Cytochrome P450 3A4 (P08684 whole entry): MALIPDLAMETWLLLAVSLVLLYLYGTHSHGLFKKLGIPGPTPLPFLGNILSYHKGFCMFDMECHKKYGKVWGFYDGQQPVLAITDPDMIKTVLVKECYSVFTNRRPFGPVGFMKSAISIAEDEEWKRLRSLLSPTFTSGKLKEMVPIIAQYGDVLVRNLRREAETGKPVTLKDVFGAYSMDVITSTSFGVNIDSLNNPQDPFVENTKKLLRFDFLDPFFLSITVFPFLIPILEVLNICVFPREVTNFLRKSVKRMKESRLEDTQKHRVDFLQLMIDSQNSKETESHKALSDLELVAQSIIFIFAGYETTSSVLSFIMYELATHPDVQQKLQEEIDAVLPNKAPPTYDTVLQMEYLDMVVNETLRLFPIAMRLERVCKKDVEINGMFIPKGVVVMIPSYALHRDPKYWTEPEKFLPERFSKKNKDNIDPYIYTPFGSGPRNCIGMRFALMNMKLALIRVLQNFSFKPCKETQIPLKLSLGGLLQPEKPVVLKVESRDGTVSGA
# Chain of Cytochrome P450 2C9 (P11712 whole entry): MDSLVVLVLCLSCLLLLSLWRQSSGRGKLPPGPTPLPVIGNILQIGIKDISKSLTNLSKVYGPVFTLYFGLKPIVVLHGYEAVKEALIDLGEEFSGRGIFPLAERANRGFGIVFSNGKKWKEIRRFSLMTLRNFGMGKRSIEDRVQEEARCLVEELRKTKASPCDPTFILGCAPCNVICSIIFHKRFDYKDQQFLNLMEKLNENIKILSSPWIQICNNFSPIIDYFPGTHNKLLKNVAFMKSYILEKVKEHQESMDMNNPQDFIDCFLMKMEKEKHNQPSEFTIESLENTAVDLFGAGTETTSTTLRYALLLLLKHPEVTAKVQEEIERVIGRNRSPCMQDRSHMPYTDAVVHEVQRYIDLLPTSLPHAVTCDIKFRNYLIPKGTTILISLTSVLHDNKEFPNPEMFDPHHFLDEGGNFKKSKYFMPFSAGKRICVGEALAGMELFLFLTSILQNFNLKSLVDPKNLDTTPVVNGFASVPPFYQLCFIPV
structure (smiles),measurement,setting,value
Cc1cc(F)cnc1N1CCN(C(=O)CCCc2cccc3ncoc23)[C@@H](C)C1,"remaining at 0.25 h, 1 µM",[1],0%
N#Cc1ccc(C2CCN(C(=O)CCS(=O)(=O)c3cccc4ncsc34)CC2)nc1,IC50,[2]; read-out: IC50,19 nM
O=C(CCS(=O)(=O)c1cccc2ncsc12)N1CCN(c2ccnc(C(F)(F)F)c2)CC1,IC50,[2]; read-out: IC50,4800 nM
N#Cc1ccc(N2CC3CCC2CN3C(=O)CCS(=O)(=O)c2cccc3ncsc23)nc1 (racemic),IC50,[2]; read-out: IC50,25 nM
Cc1ccncc1N1CCN(C(=O)CCCc2cccc3ncccc23)[C@H](C)C1,IC50,[2]; read-out: IC50,20 nM
Cc1cc(F)cnc1N1CCN(C(=O)CCCS(=O)(=O)c2cccc3ncsc23)[C@@H](C)C1,IC50,[2]; read-out: IC50,1900 nM
C[C@@H]1CN(c2ccncc2Cl)CCN1C(=O)CCCc1cccc2ncccc12,IC50,[2]; read-out: IC50,38 nM
N#Cc1ccc(N2C3CCC2CN(C(=O)CCS(=O)(=O)c2cccc4ncsc24)C3)nc1,Occ,[3],Active
same,concentration at 2 h,[4],26 nM
same,Drug uptake(free),[5],0.12 nM
same,Cp(f),[6],2.9 nM
same,Cp(f),[7],117 nM
same,Drug uptake(free),[8],3.4 nM
same,Activity,[9],40%
same,bioavailability,[10],4.5%
same,AUC,[11],21 ng·h/mL
same,AUC,[12],100 ng·h/mL
same,half-life,[13],54 min
same,CL free,[14],273 mL/min/kg
same,clearance,[15],56 mL/min/kg
same,IC50,[16],> 10000 nM
same,IC50,[17],> 10000 nM
same,IC50,[18],> 10000 nM
same,fraction unbound,[19],0.18
same,fraction unbound,[20],0.2
same,microsomal CLint at 1 µM,[21],21 µL/min/mg
same,microsomal CLint at 1 µM,[22],23 µL/min/mg
same,Ki,[23],0.84 nM
same,Ki,[24],19 nM
same,Ki,[25],0.14 nM
same,IC50,[26]; read-out: IC50,55 nM
same,IC50,[27]; read-out: IC50,200 nM
same,IC50,[2]; read-out: IC50,1.8 nM
same,Papp A→B,[28],7.7 ×10⁻⁶ cm/s
same,microsomal CLint at 1 µM,[29],42 µL/min/mg
Cc1cc(F)cnc1N1CCN(C(=O)CCCc2cccc3ncc(CO)cc23)[C@@H](C)C1,"remaining at 0.25 h, 1 µM",[1],1%
same,IC50,[2]; read-out: IC50,> 170 nM
same,IC50,[2]; read-out: pIC50 (converted),158 nM
Cc1cc(F)cnc1N1CCN(C(=O)CCCc2cccc3ncccc23)[C@H](C)C1,IC50,[26]; read-out: pIC50 (converted),501 nM
same,IC50,[27]; read-out: pIC50 (converted),631 nM
O=C(CCCc1cccc2ncccc12)N1CCN(c2ccncc2F)CC1,IC50,[2]; read-out: IC50,490 nM
Cc1ccncc1N1CCN(C(=O)CCS(=O)(=O)c2cccc3ncsc23)CC1,IC50,[2]; read-out: IC50,260 nM
N#Cc1ccc(C2=CCN(C(=O)CCS(=O)(=O)c3cccc4ncsc34)CC2)nc1,IC50,[2]; read-out: IC50,80 nM
Cc1cc(F)cnc1N1CCN(C(=O)CCS(=O)(=O)c2cccc3ncsc23)[C@@H](C)C1,"remaining at 0.25 h, 1 µM",[1],9.6%
same,IC50,[2]; read-out: IC50,71 nM
O=C(CCS(=O)(=O)c1cccc2ncsc12)N1CCN(c2ccc(Cl)cn2)CC1,"remaining at 0.25 h, 1 µM",[1],31%
same,IC50,[2]; read-out: IC50,160 nM
C[C@@H]1CN(C(=O)CCS(=O)(=O)c2cccc3ncsc23)[C@@H](C)CN1c1ccc(C#N)cn1 (racemic),IC50,[2]; read-out: IC50,330 nM
N#Cc1cc(N2CCN(C(=O)CCCc3cccc4ncccc34)CC2)ccn1,IC50,[2]; read-out: IC50,65 nM
N#Cc1cnccc1N1CCN(C(=O)CCCc2cccc3ncccc23)CC1,IC50,[2]; read-out: IC50,1100 nM
Cc1cc(F)cnc1N1CCN(C(=O)COCc2cccc3ncsc23)[C@@H](C)C1,IC50,[2]; read-out: IC50,3600 nM
CC1CN(C(=O)CCS(=O)(=O)c2cccc3ncsc23)CCN1c1ccc(C#N)cn1 (racemic),IC50,[2]; read-out: IC50,5.8 nM
Cc1cc(F)cnc1N1CCN(C(=O)CCCc2cccc3ncncc23)[C@@H](C)C1,"remaining at 0.25 h, 1 µM",[1],0%
same,IC50,[2]; read-out: IC50,83 nM
